Assay results published in patent US9695155B2, “Herbicidal substituted pyrimidinyloxy benzene compounds” (E. I. DU PONT DE NEMOURS AND COMPANY, priority 2013, dated 2017).

How the values were obtained:
[1] = tested on: corn; test: Test E preemergence; format: in vivo, Zea mays; conditions: for Corn plant response rating: scale 0 to 100 (0 no effect, 100 complete control); for Plant response rating, Corn: scale 0 to 100, 0 no effect, 100 complete control
Source text: (§1) Seeds of plant species selected from corn (Zea mays), soybean (Glycine max), velvetleaf (Abutilon theophrasti), lambsquarters (Chenopodium album), wild poinsettia (Euphorbia heterophylla), palmer pigweed (Amaranthus palmeri), waterhemp (common waterhemp, Amaranthus rudis), surinam grass (Brachiaria decumbens), large (Lg) crabgrass (Digitaria sanguinalis), Brazilian crabgrass (Digitaria horizontalis), fall panicum (Panicum dichotomiflorum), giant foxtail (Setaria faberii), green foxtail (Setaria viridis), goosegrass (Eleusine indica), johnsongrass (Sorghum halepense), ragweed (common ragweed, Ambrosia elatior), barnyardgrass (Echinochloa crus-galli), sandbur (southern sandbur, Cenchrus echinatus), arrowleaf sida (Sida rhombifolia), Italian ryegrass (Lolium multiflorum), dayflower (Virginia (VA) dayflower, Commelina virginica), field bindweed (Convolvulus arvensis), morningglory (Ipomoea coccinea), nightshade (eastern black nightshade, Solanum ptycanthum), kochia (Kochia scoparia), yellow nutsedge (Cyperus esculentus), cocklebur (common cocklebur, Xanthium strumarium), smartweed (ladysthumb smartweed, and hairy beggarticks (Bidens pilosa), were planted into a silt loam soil and treated preemergence with test chemicals formulated in a non-phytotoxic solvent mixture which included a surfactant.
(§2) At the same time, plants from these crop and weed species and also horseweed (Canada horseweed, Conyza canadensis), waterhemp_RES1, (ALS & Triazine resistant common waterhemp, Amaranthus rudis), and waterhemp_RES2, (ALS & HPPD resistant common waterhemp, Amaranthus rudis) were planted in pots containing Redi-Earth® planting medium (Scotts Company, 14111 Scottslawn Road, Marysville, Ohio 43041) comprising spaghnum peat moss, vermiculite, wetting agent and starter nutrients were treated with postemergence applications of test chemicals formulated in the same manner. Plants ranged in height from 2 to 18 cm for postemergence treatments (1- to 4-leaf stage). Treated plants and controls were maintained in a greenhouse for 14 to 21 days, after which time all species were compared to controls and visually evaluated. Plant response ratings, summarized in Table E, are based on a scale of 0 to 100 where 0 is no effect and 100 is complete control. A dash (-) response means no test result.

[2] = tested on: arrowleaf sida; test: Test E preemergence; format: in vivo, Sida rhombifolia; conditions: for Arrowleaf Sida plant response rating: scale 0 to 100 (0 no effect, 100 complete control); for Plant response rating, Arrowleaf Sida: scale 0 to 100, 0 no effect, 100 complete control
Procedure, shortened: (§3)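 Test chemicals formulated in a non-phytotoxic solvent mixture containing a surfactant were applied preemergence to seeds in silt loam soil or postemergence to plants at the 1- to 4-leaf stage in potting mix. After 14 to 21 days in a greenhouse, injury was visually rated against controls on a 0-100 scale (0 = no effect, 100 = complete control).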

[3] = tested on: fall panicum; test: Test E postemergence; format: in vivo, Panicum dichotomiflorum; conditions: Panicum dichotomiflorum, post-emergence, read-out: Plant response rating, Panicum, Fall; for pest or weed control at 31 g/ha / pest or weed control at 62 g/ha / pest or weed control at 125 g/ha: Postemergence, scale 0 to 100; for pest or weed control at 31 g/ha: 31 g ai/ha; for pest or weed control at 62 g/ha: 62 g ai/ha; for pest or weed control at 125 g/ha: 125 g ai/ha; for pest or weed control at 16 g/ha: postemergence, 16 g ai/ha, scale 0 to 100, 0 no effect, 100 complete control
Source text: as §1, §2

[4] = tested on: blackgrass; test: Test D preemergence; format: in vivo, Alopecurus myosuroides
Source text: Seeds of plant species selected from bluegrass (annual bluegrass, Poa annua), blackgrass (Alopecurus myosuroides), canarygrass (littleseed canarygrass, Phalaris minor), chickweed (common chickweed, Stellaria media), galium (catchweed bedstraw, Galium aparine), bromegrass, downy (downy bromegrass, Bromus tectorum), field poppy (Papaver rhoeas), field violet (Viola arvensis), green foxtail (Setaria viridis), deadnettle (henbit deadnettle, Lamium amplexicaule), Italian ryegrass (Lolium multiflorum), kochia (Kochia scoparia), lambsquarters (Chenopodium album), oilseed rape (Brassica napus), pigweed (Amaranthus retroflexus), chamomile (scentless chamomile, Matricaria inodora), Russian thistle (Salsola kali), speedwell (bird's-eye speedwell, Veronica persica), spring barley (Hordeum vulgare), spring wheat (Triticum aestivum), wild buckwheat (Polygonum convolvulus), wild mustard (Sinapis arvensis), wild oat (Avena fatua), wild radish (Raphanus raphanistrum), windgrass (Apera spica-venti), winter barley (Hordeum vulgare), and winter wheat (Triticum aestivum) were planted into a silt loam soil and treated preemergence with test chemicals formulated in a non-phytotoxic solvent mixture which included a surfactant.
At the same time, these species were planted in pots containing Redi-Earth® planting medium (Scotts Company, 14111 Scottslawn Road, Marysville, Ohio 43041) comprising spaghnum peat moss, vermiculite, wetting agent and starter nutrients and treated with postemergence applications of the test chemicals formulated in the same manner. Plants ranged in height from 2 to 18 cm (1- to 4-leaf stage). Treated plants and controls were maintained in a controlled growth environment for 7 to 21 days after which time all species were compared to controls and visually evaluated. Plant response ratings, summarized in Table D, are based on a scale of 0 to 100 where 0 is no effect and 100 is complete control. A dash (-) response means no test result.

[5] = tested on: kochia; test: Test E preemergence; format: in vivo, Kochia scoparia; conditions: for Kochia plant response rating: scale 0 to 100 (0 no effect, 100 complete control); for Plant response rating, Kochia: scale 0 to 100, 0 no effect, 100 complete control
Source text: as §1, §2

[6] = tested on: soybean; test: Test E postemergence; format: in vivo, Glycine max; conditions: Glycine max, post-emergence; for plant response (crop injury) rating, soybean, 0-100 scale at 31 g/ha / plant response (crop injury) rating, soybean, 0-100 scale at 62 g/ha / plant response (crop injury) rating, soybean, 0-100 scale at 125 g/ha: Postemergence, scale 0 to 100; for plant response (crop injury) rating, soybean, 0-100 scale at 31 g/ha: 31 g ai/ha; for plant response (crop injury) rating, soybean, 0-100 scale at 62 g/ha: 62 g ai/ha; for plant response (crop injury) rating, soybean, 0-100 scale at 125 g/ha: 125 g ai/ha; for plant response (crop injury) rating, soybean, 0-100 scale at 16 g/ha: postemergence, 16 g ai/ha, scale 0 to 100, 0 no effect, 100 complete control
Procedure, shortened: as §3

[7] = tested on: ragweed; test: Test F preemergence; format: in vivo, Ambrosia elatior; conditions: 21 days, scale 0 to 100
Source text: (§4) Seeds of plant species selected from bermudagrass (Cynodon dactylon), surinam grass (Brachiaria decumbens), large (Lg) crabgrass (Digitaria sanguinalis), crabgrass, naked (naked crabgrass, Digitaria nuda), foxtail, green (green foxtail, Setaria viridis), johnsongrass (Sorghum halepense), kochia (Kochia scoparia), morningglory (pitted morningglory, Ipomoea lacunosa), nutsedge, purple (purple nutsedge, Cyperus rotundus), ragweed (common ragweed, Ambrosia elatior), mustard, black (black mustard, Brassica nigra), guineagrass (Panicum maximum), dallisgrass (Paspalum dilatatum), barnyardgrass (Echinochloa crus-galli), sandbur (southern sandbur, Cenchrus echinatus), sowthistle (common sowthistle, Sonchus oleraceous), Italian ryegrass (Lolium multiflorum), signalgrass (broadleaf signalgrass, Brachiaria platyphylla), dayflower (Virginia (VA) dayflower, Commelina virginica), bluegrass (annual bluegrass, Poa annua), quackgrass (Elytrigia repens), mallow (common mallow, Malva sylvestris), buckwheat, wild (wild buckwheat, Polygonum convolvulus), leafy spurge (Euphorbia esula), chickweed (common chickweed, Stellaria media), wild poinsettia (Euphorbia heterophylla), and pigweed (Amaranthus retroflexus) were planted into a blend of loam soil and sand and treated preemergence with test chemicals formulated in a non-phytotoxic solvent mixture which included a surfactant.
(§5) Treated plants and controls were maintained in a greenhouse for 21 days, after which time all species were compared to controls and visually evaluated. Plant response ratings, summarized in Table F, are based on a scale of 0 to 100 where 0 is no effect and 100 is complete control. A dash (-) response means no test result.

[8] = tested on: sowthistle; test: Test F preemergence; format: in vivo, Sonchus oleraceous; conditions: 21 days, scale 0 to 100
Source text: as §4, §5

[9] = Alopecurus myosuroides, pre-emergence, 31 g ai/ha, scale 0-100, read-out: Plant response rating, Blackgrass
[10] = Alopecurus myosuroides, pre-emergence, 62 g ai/ha, scale 0-100, read-out: Plant response rating, Blackgrass
[11] = Alopecurus myosuroides, pre-emergence, 125 g ai/ha, scale 0-100, read-out: Plant response rating, Blackgrass

SMILES | pest or weed control at 31 g/ha [3] | pest or weed control at 62 g/ha [3] | pest or weed control at 125 g/ha [3] | pest or weed control at 16 g/ha [3] | pest or weed control at 31 g/ha [4, 9] | pest or weed control at 62 g/ha [4, 10] | pest or weed control at 125 g/ha [4, 11] | plant response (crop injury) rating, soybean, 0-100 scale at 31 g/ha [6] | plant response (crop injury) rating, soybean, 0-100 scale at 62 g/ha [6] | plant response (crop injury) rating, soybean, 0-100 scale at 125 g/ha [6] | plant response (crop injury) rating, soybean, 0-100 scale at 16 g/ha [6] | Plant response rating, Ragweed ([7]; 16 g ai/ha) | Plant response rating, Ragweed ([7]; 31 g ai/ha) | Plant response rating, Ragweed ([7]; 62 g ai/ha) | Plant response rating, Ragweed ([7]; 125 g ai/ha) | Plant response rating, Ragweed ([7]; 250 g ai/ha) | Plant response rating, Sowthistle ([8]; 16 g ai/ha) | Plant response rating, Sowthistle ([8]; 31 g ai/ha) | Plant response rating, Sowthistle ([8]; 62 g ai/ha) | Plant response rating, Sowthistle ([8]; 125 g ai/ha) | further results
N#Cc1cccc(Oc2ncc(Cl)cn2)c1-n1cc(Br)cn1 [Compound 52, 2-(4-bromo-1H-pyrazol-1-yl)-3-[(5-chloro-2-pyrimidinyl)oxy]benzonitrile] | 10% | 10% | 40% | 5% | 5% | 5% | 30% | 75% | 90% | 95% | 70% | – | – | – | – | – | – | – | – | – | Corn plant response rating ([1]; 16 g ai/ha): 0; Corn plant response rating ([1]; 31 g ai/ha): 0; Corn plant response rating ([1]; 62 g ai/ha): 0; Plant response rating, Corn ([1]; 125 g ai/ha): 0; Plant response rating, Corn ([1]; 250 g ai/ha): 40; Arrowleaf Sida plant response rating ([2]; 16 g ai/ha, preemergence): 35; Arrowleaf Sida plant response rating ([2]; 31 g ai/ha, preemergence): 40; Plant response rating, Arrowleaf Sida ([2]; Preemergence, 62 g ai/ha): 60; Plant response rating, Arrowleaf Sida ([2]; preemergence, 125 g ai/ha): 80; Plant response rating, Arrowleaf Sida ([2]; preemergence, 250 g ai/ha): 100; pest or weed control at 250 g/ha ([4]; Alopecurus myosuroides, pre-emergence, 250 g ai/ha, scale 0-100, read-out: Plant response rating, Blackgrass): 95%; Kochia plant response rating ([5]; 31 g ai/ha): 25; Kochia plant response rating ([5]; 62 g ai/ha): 65; Plant response rating, Kochia ([5]; 125 g ai/ha): 100; Plant response rating, Kochia ([5]; 250 g ai/ha): 100
N#Cc1cccc(Oc2ncc(F)cn2)c1-n1cc(C(F)(F)F)cn1 [Compound 79, 3-[(5-fluoro-2-pyrimidinyl)oxy]-2-[4-(trifluoromethyl)-1H-pyrazol-1-yl]benzonitrile] | 35% | 30% | 30% | 20% | – | – | – | 70% | 95% | 95% | 60% | 25 | 70 | 98 | 100 | 100 | 100 | 100 | 100 | 100 | Plant response rating, Sowthistle ([8]; 250 g ai/ha): 100
N#Cc1cccc(Oc2ncc(Cl)cn2)c1-n1cc(OC(F)F)cn1 [Compound 97] | – | – | – | – | – | – | – | – | – | – | – | 10 | 75 | 85 | 95 | 100 | 100 | 100 | 100 | 100 | Plant response rating, Sowthistle ([8]; 250 g ai/ha): 100
Fc1cccc(Oc2ncc(Cl)cn2)c1-n1cc(C(F)F)nn1 [Compound 141, 5-chloro-2-[2-[4-(difluoromethyl)-1H-1,2,3-triazol-1-yl]-3-fluorophenoxy]pyrimidine] | – | – | – | – | 65% | 90% | 95% | – | – | – | – | – | – | – | – | – | – | – | – | – | pest or weed control at 16 g/ha ([4]; Alopecurus myosuroides, pre-emergence, 16 g ai/ha, scale 0 (no effect) to 100 (complete control), read-out: Plant response rating, Blackgrass): 40%
FCc1cccc(Oc2ncc(Cl)cn2)c1-n1cc(I)cn1 [Compound 245] | – | – | – | – | – | – | – | – | – | – | – | – | – | – | – | – | – | – | – | – | Plant response rating, Blackgrass ([4]; 16 g ai/ha, scale 0 (no effect) to 100 (complete control)): 0; Plant response rating, Blackgrass ([4]; 31 g ai/ha, scale 0-100): 0; Plant response rating, Blackgrass ([4]; 62 g ai/ha, scale 0-100): 10; Plant response rating, Blackgrass ([4]; 125 g ai/ha, scale 0-100): 65
